The values below come from PMC3673938, “Two Distinct Calmodulin Binding Sites in the Third Intracellular Loop and Carboxyl Tail of Angiotensin II (AT1A) Receptor” (PLoS ONE, 2013).

For experiment [1], the system named is purified bovine brain CaM. The experiment in a line: GST-fusion protein pull-down with purified bovine brain CaM. It is filed as binding. The following applies: for interaction with purified CaM (pull-down, in words) / relative binding efficiency for CaM: 50 pmol GST-fusion protein; for interaction with purified CaM (pull-down, in words): 50 pmol purified bovine CaM, 100 mM Tris-HCl pH 7.5, Ca2+ dependent (0.1 mM CaCl2 vs 1 mM EGTA), repeated five times; for relative binding efficiency for CaM: purified bovine brain CaM, 100 mM Tris-HCl pH 7.5, 0.1 mM CaCl2, immunoblot density ratio, 5 independent experiments; for relative binding efficiency for CaM versus wild type (in words): GST pull-down with fixed concentrations, data not shown. Here is the method: (§1) GST-fusion proteins were expressed in E. coli BL21 strain cells, and purified by affinity chromatography using immobilized glutathione sepharose 4B beads. Proteins were eluted by reduced glutathione in 50 mM Tris-HCl buffer (pH 8.0), and then concentrated with Centricon filters with 3 kDa MW cut-off. The eluted proteins were either used immediately or stored at −80°C for future use. For GST-fusion protein pull-down assays, fusion proteins were incubated with either cell lysates or purified protein(s) at 4°C for 3 hours, following which glutathione-sepharose 4B beads were added and incubation continued at 4°C for 1 hour. The beads were then recovered by brief centrifugation, followed by 4 washes with the corresponding incubation buffer. The fusion proteins and the proteins to which they were bound were then separated by SDS-PAGE, and identified by staining with Coomassie blue or by immunoblot.
Figure 1 Interactions of the i3 loop and carboxyl tail of the AT1A receptor with CaM. A, Construction of GST-fusion proteins. Upper panel illustrates a schematic structure of the AT1A receptor and constructs of GST-fusion proteins of the i3 loop and carboxyl tail of the receptor. The numbers represent positions of amino acids in the receptor. The GST-fusion proteins were constructed, expressed in E. coli, purified by using gluthathione-sepharose 4B beads, separated by SDS-PAGE, and stained by Coomassie blue (lower panel). B. Interactions of the i3 loop or carboxyl tail of AT1A receptor with CaM in rat brain lysates (upper panel) and with purified bovine brain CaM (lower panel). 50 pmol of GST-fusion proteins were incubated with 500 µg of rat brain lysates in 250 µl of buffer containing 20 mM Tris-HCl, 70 mM NaCl, pH 7.5 with 1 mM EGTA or 0.1 mM CaCl2. Interacting protein complexes were pulled down by gluthathione-sepharose 4B beads, and visualized by immunoblot with a specific anti-CaM antibody. The same methods were applied to interactions with pure bovine CaM (50 pmol), except that the buffer contained 100 mM Tris-HCl (pH 7.5). These experiments were repeated five times with similar results.
Figure 3 CaM binding sites in the i3 loop and carboxyl tail of the AT1A receptor. A, Schematic representation of constructs of GST-fusion proteins. Four GST-fusion proteins containing truncated peptides in the i3 loop and carboxyl tail of the receptor were constructed, including GST-N-terminus of the i3 loop (GST-ATi3N), GST-C-terminus of the i3 loop (GST-ATi3C), GST-N-terminus of carboxyl tail (GST-ATctN) and GST-C-terminus of carboxyl tail (GST-ATctC). The numbers under the first or the last residues represent amino acid positions in the receptor. B, Interaction of GST-fusion proteins with CaM. The GST-fusion proteins (50 pmol) were incubated with purified bovine CaM (50 pmol) in 250 µl of buffer containing 100 mM Tris-HCl (pH 7.5) with 0.1 mM CaCl2. Proteins were pulled down by gluthathione-sepharose 4B beads, following which immunoblots were probed with a specific anti-CaM antibody. These experiments were repeated five times with similar results.
Figure 5 Effect of point mutations in ATi3N or ATctN on their interactions with CaM. A. Modeled structures of CaM-ATi3(214–231) and CaM-ATct(302–317). The complexes of CaM and CaM binding motif in the i3 loop ATi3(214–231) or the carboxyl terminal tail ATct(302–317) of the receptor were modeled as described in Experimental Procedures. The target peptides are colored in red. […] Calcium atoms are shown as orange spheres. The N- and C- termini of CaM are also labeled. Helices and sheets in CaM are colored in green and yellow, respectively. B. Effect of point mutations at ATi3N or ATctN on their interaction with CaM. […]
On the technique in general: A western blot detects proteins with antibodies after separation by electrophoresis.

The test system of experiment [2] is AT1A receptor-CaM interaction. The experiment in a line: BRET between AT1A receptor-eYFP and RLuc-CaM / CaM-RLuc in HEK293 cells. It is filed as cell-based, Human Embryonic Kidney 293 (HEK293) cells. The following applies: 100 nM Ang II at 2, 4 and 6 minutes, compared with no Ang II. In general terms: In BRET a luciferase serves as donor, and the signal depends on an acceptor being close.
Procedure: We first stably transfected HEK293 cells with the AT1A receptor-eYFP vector by using lipofectamine 2000 solution according to the vendor’s (Invitrogen) instructions. […] The co-transfectants were detached with PBS buffer containing 1 mM EDTA, and distributed into 96 well plates at 10^5 cells/well (OptiPlate 96, Greiner Bio-One. Longwood, FL). Fluorescence measurements were acquired using a Victor2 multilabel plate reader (Perkin Elmer Life Sciences, Shelton, CT). […] The emission of light from YFP was measured both before and after stimulation with 100 nM of Ang II.
48 hours later, the cotransfectants were washed with saline pre-warmed at 37°C and calibrated in saline in a 37°C incubator for 30 minutes. […] Control co-transfectants were treated with equal amounts of saline (vehicle).

The next experiment relates to G protein βγ subunits. The experiment in a line: GST-fusion protein pull-down of G protein βγ subunits, with or without CaM. Type of experiment: binding, bovine. The following applies: 2 pmol GST-fusion protein, 2 pmol Gβγ, CaM pre-incubated 30 minutes, 20 mM Tris-HCl, 70 mM NaCl, 0.1 mM CaCl2, pH 7.5; 4 or 5 experiments. Here is the method: as §1
Figure 7 Effect of CaM on G protein βγ subunit interaction with wild ATi3 or ATct. A. Interaction of G protein βγ subunits and ATi3 or ATct. 50 pmol of GST-ATi3(213–242) or GST-ATct(297–359) were incubated with different amounts of G protein Gβγ subunits in a buffer containing 20 mM Tris-HCl and 70 mM NaCl (pH 7.5). Interactions were assessed by GST-fusion protein pull-down assay, and blots were probed with a specific antibody against Gβ subunits (upper panel). 1 pmol of Gβγ subunit was interacted with different amounts of GST-ATi3(213–242) and GST-ATct(297–359). Interaction was assessed by immunoblot against Gβ subunits (lower panel). B. CaM inhibits the interaction between G protein Gβγ subunits and ATi3 or ATct. 2 pmol of GST-ATi3(213–242) or GST-ATct(297–359) were incubated with different concentrations of pure bovine brain CaM for 30 minutes in a buffer (20 mM Tris-HCl and 70 mM NaCl with 0.1 mM CaCl2, pH 7.5) following which 2 pmol of Gβγ subunits were added and incubated for 1 hour. GST-fusion proteins and their interacting proteins were pulled down by gluthathione-sepharose 4B beads, and subjected to immunoblot. Blots were probed with a specific antibody against Gβ subunits. The summary graph represents means ± S.E. from four independent experiments. C. Effects of CaM on the interactions between G protein βγ subunits and mutated ATi3 and ATct. The method is same as the described in the Figure 7B, except that we used mutated GST-fusion proteins, GST-ATi3(213–242)W219A, ATct(297–359)F309A, and ATct(297–359)F313A. The summary graph represents mean ± S.E. from 4 or 5 independent experiments.

In another experiment the test system is CaM in rat brain lysates. The experiment in a line: GST-fusion protein pull-down from rat brain lysates. It is filed as binding. The settings on record: 50 pmol GST-fusion protein, 500 µg rat brain lysates, 20 mM Tris-HCl, 70 mM NaCl, pH 7.5; Ca2+ dependent; repeated five times. The protocol:
as §1
Figure 1 Interactions of the i3 loop and carboxyl tail of the AT1A receptor with CaM. A, Construction of GST-fusion proteins. Upper panel illustrates a schematic structure of the AT1A receptor and constructs of GST-fusion proteins of the i3 loop and carboxyl tail of the receptor. The numbers represent positions of amino acids in the receptor. […]

Experiment [3] deals with T1, CaM purified from bovine brain (dansyl-CaM) (Bos taurus, UniProt P62157).
T1 construct: CaM and G protein βγ subunits purified from bovine brain; purchased Calbiochem (La Jolla, CA); host or cells: bovine brain (tissue-purified)
As to the kind of experiment: Dansyl-CaM fluorescence emission spectrum shift. It is filed as binding. The settings on record: dansyl-CaM 106 nM, 500 nM peptide + 0.1 mM calcium, 1 hour room temperature; shifted from 521 nm (EGTA); three experiments. Here is the method: Dansyl-CaM was synthesized according to a standard method, [46], [47], [48]. 500 µl of CaM purified from bovine brain (2 mg/ml in a buffer containing 20 mM NH4HCO3, pH 7.4 and 1 mM CaCl2) was mixed with 1 µl of dansyl chloride (100 mg/ml in acetone) at 4°C C for 1 hour with agitation. The mixture was then applied to a Centricon 4 concentrator with 10 kDa MW cut-off to remove the unincorporated dye. Efficiencies of dansylation (0.18–0.34 mol of dansyl moiety per mol of CaM) were calculated by measurement of absorption at 320 nm using a molar extinction coefficient of 3400 M-1cm-1. For conformational studies of dansyl-CaM, fluorescence was monitored at room temperature with a SLMAminco model 8000 series 2 spectrometer (Spectronic Instruments, Rochester, NY) at an excitation wavelength of 340 nm, and emission wavelengths from 425 to 600 nm.
Figure 4 CaM binding motifs in the i3 loop and carboxyl terminal tail of the AT1A receptor. A, Alignment of CaM binding motifs. […] Fluorescence emission spectra of dansyl-CaM (106 nM) at an emission wavelength of 425–600 nm were measured in the presence of 10 mM EGTA, 0.1 mM calcium, 500 nM ATi3 (214–231) +0.1 mM calcium, and 500 nM ATct (302–317) +0.1 mM calcium. […] Spectra were corrected for background buffer fluorescence. […]

Where no end group is shown, it is not given here.

In the case of “ATctC (325–359): GST-C-terminus of carboxyl tail, GST-KSHSSLSTKMSTLSYRPSDNMSSSAKKPASCFEVE ({GST}-KSHSSLSTKMSTLSYRPSDNMSSSAKKPASCFEVE)”, the “interaction with purified CaM (pull-down, in words)” value (shortened to “interaction with purified CaM”) in experiment [1] is given as “no interactions with CaM”.

For the substance “ATctN (297–324): GST-N-terminus of carboxyl tail, GST-LNPLFYGFLGKKFKKYFLQLLKYIPPKA ({GST}-LNPLFYGFLGKKFKKYFLQLLKYIPPKA)”, the “interaction with purified CaM” value in experiment [1] is on record as “interact with purified CaM”.

For “ATi3C (235–242): GST-C-terminus of the i3 loop, amino acids 235–242, peptide NDDIFRIT”, the “interaction with purified CaM” value in experiment [1] is given as “no interactions with CaM”.

Consider “ATi3N (213–234): GST-N-terminus of the i3 loop, GST-TSYTLIWKALKKAYEIQKNKPR ({GST}-TSYTLIWKALKKAYEIQKNKPR)”, for which, in experiment [1], the “interaction with purified CaM” value is on record as “interact with purified CaM”.

Consider “Angiotensin II (DRVYIHPF; Angiotensin-2; UniProt P01019 25-32, looked up) [Ang II, AT1A receptor agonist]”, for which the “effect on magnitude of the BRET ratio of the co-transfectants” value in experiment [2] was “did not alter”.

As for “GST-ATctN(297–324)F309A: F309A mutant of GST-ATctN(297–324) ({GST}-LNPLFYGFLGKKAKKYFLQLLKYIPPKA)”, in experiment [1], the “relative binding efficiency for CaM” value is listed as 29 % of wild type.

With “GST-ATctN(297–324)F313A: F313A mutant of GST-ATctN(297–324) ({GST}-LNPLFYGFLGKKFKKYALQLLKYIPPKA)”, in experiment [1], the “relative binding efficiency for CaM” value is on record as 22 % of wild type.

Consider “GST-ATctN(297–324)Y312A: Y312A mutant of GST-ATctN(297–324) ({GST}-LNPLFYGFLGKKFKKAFLQLLKYIPPKA)”, for which the “relative binding efficiency for CaM versus wild type (in words)” value (“relative binding efficiency … (in words)” for short) in experiment [1] was “did not have reduced binding efficiencies”.

Take “GST-ATi3(W219A): W219A mutant of GST-ATi3(213–242) ({GST}-TSYTLIAKALKKAYEIQKNKPRNDDIFRII)”: in the experiment with G protein βγ subunits, the “Gβγ binding to GST-fusion protein in the presence of 2 pmol of CaM” value stood at 95% and the “Gβγ binding to GST-fusion protein in the presence of 10 pmol of CaM” value is reported as 94%.

As to “GST-ATi3N(213–234)L217A: L217A mutant of GST-ATi3N(213–234) ({GST}-TSYTAIWKALKKAYEIQKNKPR)”, the “relative binding efficiency … (in words)” value in experiment [1] was “did not have reduced binding efficiencies”.

“GST-ATi3N(213–234)Y215A: Y215A mutant of GST-ATi3N(213–234) ({GST}-TSATLIWKALKKAYEIQKNKPR)”: the “relative binding efficiency … (in words)” value in experiment [1] is “did not have reduced binding efficiencies”.

On to “GSTATi3(213–242): GST fused to the i3 loop of AT1A receptor, GST-TSYTLIWKALKKAYEIQKNKPRNDDIFRII ({GST}-TSYTLIWKALKKAYEIQKNKPRNDDIFRII)”, for which, in the experiment on G protein βγ subunits, the “Gβγ binding to GST-fusion protein in the presence of 2 pmol of CaM” value is listed as 77% and the “Gβγ binding to GST-fusion protein in the presence of 10 pmol of CaM” value is 60%. Further, in the experiment on CaM in rat brain lysates, the “association with CaM from rat brain lysates (pull-down, in words)” value is “associated”. Further, the “interaction with purified CaM” value in experiment [1] is given as “associated”.

Consider “GSTATi3N(213–234)W219A: W219A mutant of GST-ATi3N(213–234) ({GST}-TSYTLIAKALKKAYEIQKNKPR)”, for which the “relative binding efficiency for CaM” value in experiment [1] is given as 32 % of wild type.

Consider SYTLIWKALKKAYEIQKN [ATi3(214–231)], for which the “λmax of dansyl-CaM fluorescence emission spectrum in presence of peptide” value in experiment [3] is reported as 486 nm.
